Molecules are shown by their SMILES. Read-outs that look alike come from different tables or passages of the source.

In series [1] the test system is jejunum. As to conditions: mucosal to serosal direction, cited from earlier work.
Series [2] in a line: Ussing chamber drug transport across adult intestinal tissue. As to conditions: human.
Series [3] concerns adult terminal ileum tissue. Described as above. The conditions noted are these: adult, M > S (mucosal to serosal).
The nature of series [4]: Ussing chamber drug transport across pediatric intestinal tissue. As to conditions: human.
The conditions of series [5]: human in vivo; cited from earlier work.
Where [6] appears, read: adult jejunum, ref Michiba et al., 2021 [19].
The mark [7] stands for this setting: Papp, estimated marginal mean ± SE, adult, M > S (mucosal to serosal), mixed model.
Setting [8] is: Papp, estimated marginal mean ± SE, adult, S > M (serosal to mucosal), mixed model.
Where [9] appears, read: Papp, mean ± SD, adult, M > S (mucosal to serosal).
Where [10] appears, read: Papp, mean ± SD, adult, S > M (serosal to mucosal).
[11] abbreviates: Papp, estimated marginal mean ± SE, pediatric, M > S (mucosal to serosal), mixed model.
Setting [12] is: Papp, estimated marginal mean ± SE, pediatric, S > M (serosal to mucosal), mixed model.
Where [13] appears, read: Papp, mean ± SD, pediatric, M > S (mucosal to serosal).
Setting [14] is: Papp, mean ± SD, pediatric, S > M (serosal to mucosal).

In the case of `CC(C)NCC(O)COc1cccc2ccccc12` (stereo not shown) [Propranolol], the Papp (commonly a coefficient for how fast a substance crosses the barrier) is 7.8 ± 4.6 × 10^−6 cm/s in series [1] (setting [6]); 12 ± 1.28 ×10⁻⁶ cm/s in series [2] (setting [7]); 10.3 ± 1.27 ×10⁻⁶ cm/s in series [2] (setting [8]); 12.4 ± 6.2 ×10⁻⁶ cm/s in series [2] (setting [9]); 10.7 ± 5.02 ×10⁻⁶ cm/s in series [2] (setting [10]); 7.98 ± 1.45 ×10⁻⁶ cm/s in series [4] (setting [11]). Further, the values for the Papp in series [4] (setting [12]), in series [4] (setting [13]) and in series [4] (setting [14]) were 7.74 ± 1.47 ×10⁻⁶ cm/s, 7.49 ± 4.58 ×10⁻⁶ cm/s and 8.27 ± 4.7 ×10⁻⁶ cm/s, respectively. In series [3], the “Papp, mean ± SD” value is recorded as 12.38 ± 6.15 ×10^–6 cm/s.
For `CC(C)c1nc(N(C)S(C)(=O)=O)nc(-c2ccc(F)cc2)c1/C=C/[C@@H](O)C[C@@H](O)CC(=O)O` [Rosuvastatin], the Papp in series [1] (setting [6]) is 1.6 ± 0.6 × 10^−6 cm/s; in series [1] (jejunum, ref Sjoberg et al., 2013 [17]), 7.0 ± 1.0 × 10^−6 cm/s; in series [2] (setting [7]) it was 6.32 ± 0.97 ×10⁻⁶ cm/s; in series [2] (setting [8]) it was 11.2 ± 0.91 ×10⁻⁶ cm/s; in series [2] (setting [9]) it was 6.3 ± 2.8 ×10⁻⁶ cm/s; in series [2] (setting [10]) it was 11.2 ± 5.49 ×10⁻⁶ cm/s. The Papp in series [4] (setting [11]) was 3.8 ± 0.88 ×10⁻⁶ cm/s; in series [4] (setting [12]), 7.53 ± 1 ×10⁻⁶ cm/s; in series [4] (setting [13]), 4.73 ± 2.04 ×10⁻⁶ cm/s; in series [4] (setting [14]), 7.53 ± 3.66 ×10⁻⁶ cm/s. Further, in series [5], the fraction absorbed was 50%. The results for the efflux ratio in series [2] and in series [4] were 2.1 ± 1 and 1.3 ± 0.6, respectively. Further, the Papp at 4 µM in series [2] (setting [10]) was 11.2 ± 5.5 ×10⁻⁶ cm/s; in series [4] (setting [14]), 7.5 ± 3.7 ×10⁻⁶ cm/s.

Values taken from publication PMC9579398 (Clinical and Translational Science, 2022).
